Source: US20260125375A1 (Pfizer Inc., priority 2022, published 2026)
Read-outs that look alike come from different tables or passages of the source.

Tests used:
[1] = target: T1, CBL-B (residues 36-427) (Homo sapiens, UniProt Q13191); assay: Ligand Displacement Assay (LDA), HTRF competitive binding against BODIPY-labeled fluorescent tracer, CBL-B; conditions: geometric mean of the number of tests, read-out: CBL-B Ki (nM) GMean
T1 construct: Purified CBL-B (residues 36-427) and C-CBL (residues 46-435) proteins from baculovirus-infected insect cells; made in house; host or cells: baculovirus-infected insect cells
How it was run: (§1)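 First, the insect-cell-expressed protein is biotinylated at its amino-terminal AviTag with BirA and coupled to SA-Tb. Next, the tracer KD is determined for each protein. Finally, compounds are titrated three-fold in duplicate […], at 2% DMSO, and Ki is reported as a geometric mean.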

[2] = target: T2, C-CBL (residues 46-435) (Homo sapiens, UniProt P22681); assay: Ligand Displacement Assay (LDA), HTRF competitive binding against BODIPY-labeled fluorescent tracer, C-CBL; conditions: geometric mean of the number of tests, read-out: C-CBL Ki (nM) GMean
T2 construct: Purified CBL-B (residues 36-427) and C-CBL (residues 46-435) proteins from baculovirus-infected insect cells; made in house; host or cells: baculovirus-infected insect cells
T2 sequence (P22681 46-435): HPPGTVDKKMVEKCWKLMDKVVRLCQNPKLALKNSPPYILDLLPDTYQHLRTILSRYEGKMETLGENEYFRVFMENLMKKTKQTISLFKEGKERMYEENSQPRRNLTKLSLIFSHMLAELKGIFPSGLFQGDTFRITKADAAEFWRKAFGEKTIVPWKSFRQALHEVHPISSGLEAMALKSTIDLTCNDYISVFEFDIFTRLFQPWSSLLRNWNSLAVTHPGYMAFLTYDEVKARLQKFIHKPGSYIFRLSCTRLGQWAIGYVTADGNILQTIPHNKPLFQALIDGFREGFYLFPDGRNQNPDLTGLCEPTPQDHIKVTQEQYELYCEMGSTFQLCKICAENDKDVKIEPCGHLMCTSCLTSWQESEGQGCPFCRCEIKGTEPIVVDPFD
How it was run: as §1

[3] = target: T3, C-CBL (Homo sapiens, UniProt P22681); assay: Jurkat HiBit-IL2 assay (CBL-B KO), reporter cell line expressing C-CBL only; type: cell-based; conditions: geometric mean, read-out: CBL-B KO EC50 (nM) GMean
T3 construct: endogenous in cells; host or cells: Jurkat HiBit-IL2 reporter cells, CBL-B knocked out by CRISPR
From the text: (§2) Jurkat HiBit-IL2 Assay (WT, c-CBL KO, CBL-B KO)
(§3) The purpose of the Jurkat HiBit-IL2 assay is to evaluate the effect of the inhibition of CBL-B and/or C-CBL on TCR/CD28 stimulated interleukin-2 (IL-2) secretion.
(§4) The expression of IL-2 can then be accurately measured by HiBit luciferase assay. Further, C-CBL or CBL-B was knocked out by CRISPR respectively in this Jurkat HiBit-IL2 reporter cell line to create reporter cell line expressing CBL-B only (c-CBL knockout (KO)) or C-CBL only (CBL-B KO).
(§5) All three reporter cell lines were maintained in RPMI-1640 media with GlutaMax, 10% fetal bovine serum, 100 units/ml of penicillin, and 100 μg/ml of streptomycin at 37° C., 5% CO2, at a cell density 1×10e5-2×10e6 viable cells/ml. Serial diluted compounds in DMSO (40 nl/well, final 0.1% DMSO in assay cell culture) were plated into 384-well white-wall clear-bottom cell culture plates. Reporter cells were pelleted and resuspended in fresh cell culture medium to 0.66×10e6 cells/ml and added to the assay plate at 30 μl/well (20,000 cells/well). The cells were incubated with compounds for 1 hour at 37° C., 5% CO2. 10 μl/well of anti-CD3 antibody (OKT3) and anti-CD28 antibody (CD28.2) prediluted in fresh cell culture medium at 4× final concentration (anti-CD3 mAb: 4 μg/ml; anti-CD28 mAb: 8 μg/ml) was added into the cells (final concentration of anti-CD3 mAb: 1 μg/ml; anti-CD28 mAb: 2 μg/ml). The cells were cultured for another 4 hours at 37° C., 5% CO2. The Nano-Glo HiBiT Lytic Reagent was prepared following the manufacturer's protocol. 20 ul/well of the Nano-Glo HiBiT Lytic Reagent was added into the reporter cell culture assay plate and incubated at room temperature (20-25° C.) for 15 minutes. The plates were read on a Perkin-Elmer EnVision plate reader with 0.1 second integration time. Data were normalized to “Fold of Effect” with the anti-CD3 and anti-CD28 antibodies only samples as the baseline activation level and EC50 was calculated. The EC50 (nM) values reported are the geometric means (GMean) of the number of tests conducted.

[4] = target: T4, CBL-B (Homo sapiens, UniProt Q13191); assay: Jurkat HiBit-IL2 assay (c-CBL KO), reporter cell line expressing CBL-B only; type: cell-based; conditions: geometric mean, read-out: C-CBL KO EC50 (nM) GMean
T4 construct: endogenous in cells; host or cells: Jurkat HiBit-IL2 reporter cells, C-CBL knocked out by CRISPR
From the text: as §2, §3, §4, §5

[5] = CBL-B KO (C-CBL only), anti-CD3/anti-CD28 stimulation 4 hours, Table 16a
[6] = CBL-B KO (expressing C-CBL only), Table 16b (further repetition)
[7] = C-CBL KO (expressing CBL-B only), Table 16b (further repetition)
[8] = c-CBL KO (CBL-B only), anti-CD3/anti-CD28 stimulation 4 hours, Table 16a

Row | Compound | Ki [1] | Ki [2] | EC50 [3, 5] | EC50 [3, 6] | EC50 [4, 7] | EC50 [4, 8]
1 | C[C@H](N[C@@H](C)CO)c1nc(C(F)(F)F)cc2c(-c3cccc([C@H](c4nncn4C)C4CCC4)c3)n[nH]c12 (single isomer, unassigned) [Example D27] | 1 nM | 9.1 nM | 194 nM | 209 nM | 24 nM | 11 nM
2 | C[C@@H](N[C@@H]1CC[C@@H]1O)c1nc(C(F)(F)F)cc2c(-c3cccc([C@H](c4nncn4C)C4CCC4)c3)n[nH]c12 (single isomer, unassigned) [Example D29] | 1.9 nM | 23.7 nM | 139 nM | 224 nM | 36 nM | 11 nM
3 | C[C@@H](NC1CC[C@H]1O)c1nc(C(F)(F)F)cc2c(-c3cccc([C@H](c4nncn4C)C4CCC4)c3)n[nH]c12 (single isomer, unassigned) [Example D31] | 4 nM | 27.3 nM | 199 nM | 258 nM | 56 nM | 16 nM
4 | C[C@@H](NC(C)(C)CO)c1nc(C(F)(F)F)cc2c(-c3cccc([C@H](c4nncn4C)C4CCC4)c3)n[nH]c12 (single isomer, unassigned) [Example D55] | 4.8 nM | 76.5 nM |  | 642 nM | 80 nM | 
5 | C[C@@H](N[C@@H]1COC[C@@H]1O)c1nc(C(F)(F)F)cc2c(-c3cccc([C@H](c4nncn4C)C4CCC4)c3)n[nH]c12 (single isomer, unassigned) [Example D56] | 6.2 nM | 62.3 nM |  | 365 nM | 84 nM | 
6 | C[C@H](N[C@@H]1COC[C@H]1O)c1nc(C(F)(F)F)cc2c(-c3cccc([C@H](c4nncn4C)C4CCC4)c3)n[nH]c12 (single isomer, unassigned) [Example D59] | 2.6 nM | 26.6 nM |  | 1260 nM | 267 nM | 
7 | C[C@@H](CO)N[C@H](C)c1nc(C(F)(F)F)cc2c(-c3cccc([C@H](c4nncn4C)C4CCC4)c3)n[nH]c12 (single isomer, unassigned) [Example D63] | 8.4 nM | 67 nM |  | 577 nM | 121 nM | 
8 | C[C@@H](c1nc(C(F)(F)F)cc2c(-c3cccc([C@H](c4nncn4C)C4CCC4)c3)n[nH]c12)N1CC[C@H]1CO (single isomer, unassigned) [Example D64] | 8.7 nM | 58 nM |  | 483 nM | 134 nM | 
9 | C[C@H](c1nc(C(F)(F)F)cc2c(-c3cccc([C@H](c4nncn4C)C4CCC4)c3)n[nH]c12)N1CC[C@H]1CO (single isomer, unassigned) [Example D65] | 13.7 nM | 110 nM |  | 1180 nM | 468 nM | 
10 | C[C@@H](c1nc(C(F)(F)F)cc2c(-c3cccc([C@H](c4nncn4C)C4CCC4)c3)n[nH]c12)N1CC(C)(O)C1 (single isomer, unassigned) [Example D66] | 2.6 nM | 22.1 nM |  | 409 nM | 72 nM | 
11 | C[C@H](c1nc(C(F)(F)F)cc2c(-c3cccc([C@H](c4nncn4C)C4CCC4)c3)n[nH]c12)N1CC(C)(O)C1 (single isomer, unassigned) [Example D67] | 10.9 nM | 78.5 nM |  | 1520 nM | 321 nM | 
